Measurements from patent US8835428B2, “Diacylglycerol acyltransferase inhibitors” (Piramal Enterprises Limited, priority 2008, dated 2014).

target: T1, hDGAT1 (Homo sapiens, UniProt O75907); test: In-vitro DGAT1 assay (hDGAT1 microsomes from Sf9 cells, 14C oleoyl CoA, triglyceride formation); type: biochemical; settings: At 1 μM
T1 construct: host or cells: Sf9 insect cells (baculovirus); microsomal preparation
T1 sequence (O75907 1-488): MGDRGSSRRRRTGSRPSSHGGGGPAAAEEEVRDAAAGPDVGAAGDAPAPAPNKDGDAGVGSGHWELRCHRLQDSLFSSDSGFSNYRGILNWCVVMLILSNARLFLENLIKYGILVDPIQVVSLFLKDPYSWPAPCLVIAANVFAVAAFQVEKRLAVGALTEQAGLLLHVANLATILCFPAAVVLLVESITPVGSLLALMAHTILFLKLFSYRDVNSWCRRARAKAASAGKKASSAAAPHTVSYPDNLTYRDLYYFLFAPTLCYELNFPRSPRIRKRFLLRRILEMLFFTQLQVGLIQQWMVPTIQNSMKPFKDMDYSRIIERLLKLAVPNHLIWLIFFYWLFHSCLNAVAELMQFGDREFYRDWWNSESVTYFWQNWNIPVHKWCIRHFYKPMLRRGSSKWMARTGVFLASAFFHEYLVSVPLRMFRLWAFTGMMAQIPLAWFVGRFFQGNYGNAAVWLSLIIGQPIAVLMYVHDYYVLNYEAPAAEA
Method: In-vitro Protocol for DGAT1 Assay
Sf9 Culture and Treatment
Sf9 cells were grown in T25 flasks containing Graces's Insect media with 10% FBS with antibiotic (100 units/mL penicillin, 100 μg/mL streptomycin sulphate, 0.25 μg/mL Amptotericin B as Fungizone) grown in a 27° C. incubator:
hDGAT1ORF expression clone (RZPDo839C09146 in pDEST vector) was obtained from RZPD, Germany. hDGAT1 bacmid DNA was obtained by transformation of the hDGAT expression clone into DH10Bac E. coli competent cells. Approximately 1 μg of hDGAT1 bacmid DNA was infected into Sf9 cells with Cellfectin (Invitrogen) reagent. Following infection, Sf9 cells were incubated at 27° C. for 30 minutes. Five hours after infection, the media was replaced with growth media containing antibiotic (100 units/mL penicillin, 100 μg/mL streptomycin sulphate, 0.25 μg/mL Amptotericin B as Fungizone) and incubated at 27° C. for 72 hours. The supernatant containing the virus was centrifuged at 1500×g for 5 minutes, passed through 0.22 μm filter, and subsequently stored at 4° C. The virus was further amplified three more times by re-infection of Sf9 cells and the viral titer was determined by plaque assay.
Preparation of DGAT1 Microsomes from Sf9 Cells
Sf9 cells were seeded in spinner flasks on day 0 at a cell density of 1×10^6 and infected on day 1 with hDGAT1 baculovirus at a multiplicity of infection (MOI) of 5 and a cell density of 2×10^6. On day 3 (or 66-72 hours), cells were harvested and centrifuged at 2500×g for 10 minutes. Pellet was resuspended in lysis buffer (100 mM sucrose, 50 mM KCl, 40 mM KH2PO4, 30 mM EDTA, pH 7.2) and passed through 21-gauge needle approximately 10 times. The mixture was centrifuged at 12,000 rpm in a Sigma 12158-H rotor at 4° C. for 30 minutes. The supernatant was subjected to centrifugation at 35,000 rpm in a Beckman Ti-45 rotor at 4° C. for 1 hour. The resultant pellet containing the microsomes were resuspended overnight in 1 mL of lysis buffer and total protein concentration was estimated using Bradford Reagent. Microsomes were aliquoted and stored at −20° C.
Measurement of DGAT1 Activity
Frozen aliquots of hDGAT1 containing microsomes were thawed (5-10 mg/mL total protein) on ice and diluted to a working stock of 1 mg/mL with DGAT Assay Buffer (DAB). The DGAT reaction assay was performed by following the procedure described in U.S. Pat. No. 6,607,893 with some modifications that are described below.
Preparation of DGAT1 substrate mixture: 1 mL stock solution of DGAT1 substrate mixture contains (i) 5.6 μL of ^14C oleoyl CoA (16.8 nCi) and 35 μL 1,2-dioleoyl-sn-glycerol (409.5 μM) or (ii) 5.6 μL of ^14C oleoyl CoA (16.8 nCi) and 105 μL 1,2-dioleoyl-sn-glycerol (1228.5 μM) or (iii) 5.6 μL of ^14C oleoyl CoA (16.8 nCi) and 140 μL 1,2-dioleoyl-sn-glycerol (1638 μM).
1,2-sn-dioleoylglycerol substrate concentration in the 1 mL stock solution of DGAT1 substrate mixture was varied depending on the microsome concentration used in the assay reaction. 1,2-dioleoyl-sn-glycerol stock (19.5 mM) was prepared by dissolving 25 mg of 1,2-dioleoyl-sn-glycerol (Sigma, US) in 2060 μL of acetone. The assay was performed in duplicates in a reaction volume of 100 μL. The reaction volume consisted of: • (i) 27.5 μL of DGAT assay buffer (0.25M Sucrose, 1 mM EDTA (pH 8.0), 150 mM Tris-HCl, pH 7.4, 1.25 mg/mL, fatty acid free BSA), • (ii) 10 μL of compound, of present invention or standard (dissolved in DMSO and diluted to 10× with DAB and screened at 10 μM, 5 μM and 1 μM), • (iii) 60 μL DGAT1 substrate mixture taken from a 1 mL stock (16.8 nCi of ^14C oleoyl CoA and 409.5 μM or 1228.5 μM or 1638 μM of 1,2-dioleyl-sn-glycerol), • (iv) 2.5-10 μL of 1 mg/mL of microsomes (the amount of assay buffer was varied depending upon the concentration of microsome to make up the volume to 100 μL). Procedure:
The reaction was started by the addition of 2.5-10 μL of 1 mg/mL of microsomes (iv) to a mixture of (i), (ii) and (iii), vortexed and incubated at 37° C. for 10 minutes. […]

For “2-(3-(4-(Benzyloxy)phenyl)isoxazole-5-carboxamido)-3-methylbutanoic acid [Example 324]”, the “% inhibition of hDGAT1” value was “+ (>0% Inhibition ≦50)”.

same assay, conditions: At 10 μM

“7-{3-[4-(6-Fluoro-benzothiazol-2-ylamino)-phenyl]-isoxazole-5-yl}-9-oxa-6,8-diaza-spiro[4,5]dec-7-en-10-one [Example 67]” was tested, and the “% inhibition of hDGAT1” value was “+++ (>75% Inhibition ≦100)”.

Compared with `CCOC(=O)c1cc(-c2ccc(Nc3nc4ccc(F)cc4s3)cc2)no1` [Example 1, 3-[4-(6-Fluoro-benzothiazol-2-ylamino)-phenyl]-isoxazole-5-carboxylic acid ethyl ester], `NC(=O)c1cc(-c2ccc(Nc3nc4ccc(F)cc4s3)cc2)no1` [Example 3, 3-[4-(6-Fluoro-benzothiazol-2-ylamino)-phenyl]-isoxazole-5-carboxylic acid amide] is lower in inhibition at 10 µM: 50 to 75% for the first, 0 to 50% for the second.

`O=C(O)c1cc(-c2ccc(Nc3nc4ccc(F)cc4s3)cc2)no1` [Example 2, 3-[4-(6-Fluoro-benzothiazol-2-ylamino)-phenyl]-isoxazole-5-carboxylic acid] and `NC(=S)c1cc(-c2ccc(Nc3nc4ccc(F)cc4s3)cc2)no1` [Example 4, 3-[4-(6-Fluoro-benzothiazol-2-ylamino)-phenyl]-isoxazole-5-carbothioic acid amide] fall in the same range of inhibition at 10 µM: 0 to 50% for the first, 0 to 50% for the second.

Compared with `COC(=O)[C@@H](NC(=O)c1cc(-c2ccc(Nc3nc4ccc(F)cc4s3)cc2)no1)C(C)C` [Example 5, (S)-2-({3-[4-(6-Fluoro-benzothiazol-2-ylamino)-phenyl]-isoxazole-5-carbonyl}-amino)-3-methyl-butyric acid methyl ester], `COC(=O)[C@@H](NC(=S)c1cc(-c2ccc(Nc3nc4ccc(F)cc4s3)cc2)no1)C(C)C` [Example 6, (S)-2-({3-[4-(6-Fluoro-benzothiazol-2-ylamino)-phenyl]-isoxazole-5-carbothioyl}-amino)-3-methyl-butyric acid methyl ester] is lower in inhibition at 10 µM: 50 to 75% for the first, 0 to 50% for the second.

`COC(=O)[C@@H](NC(=NO)c1cc(-c2ccc(Nc3nc4ccc(F)cc4s3)cc2)no1)C(C)C` [Example 7, (S)-2-({3-[4-(6-Fluoro-benzothiazol-2-ylamino)-phenyl]-N-hydroxy-isoxazole-5-carboximidoyl}-amino)-3-methyl-butyric acid methyl ester] and `CC(C)[C@H](NC(=NO)c1cc(-c2ccc(Nc3nc4ccc(F)cc4s3)cc2)no1)C(=O)O` [Example 8, (S)-2-({3-[4-(6-Fluoro-benzothiazol-2-ylamino)-phenyl]-N-hydroxy-isoxazole-5-carboximidoyl}-amino)-3-methyl-butyric acid] fall in the same range of inhibition at 10 µM: 50 to 75% for the first, 50 to 75% for the second.

First: COC(=O)[C@H](CO)NC(=O)c1cc(-c2ccc(Nc3nc4ccc(F)cc4s3)cc2)no1 [Example 9, (S)-2-({3-[4-(6-Fluoro-benzothiazol-2-ylamino)-phenyl]-isoxazole-5-carbonyl}-amino)-3-hydroxy-propionic acid methyl ester]
Second: COC[C@H](NC(=O)c1cc(-c2ccc(Nc3nc4ccc(F)cc4s3)cc2)no1)C(=O)OC [Example 12, (S)-2-({3-[4-(6-Fluoro-benzothiazol-2-ylamino)-phenyl]-isoxazole-5-carbonyl}-amino)-3-methoxy-propionic acid methyl ester]
The inhibition at 10 µM of the first is lower: 0 to 50% for the first, 50 to 75% for the second.

First: O=C(N[C@@H](CO)C(=O)O)c1cc(-c2ccc(Nc3nc4ccc(F)cc4s3)cc2)no1 [Example 10, (S)-2-({3-[4-(6-Fluoro-benzothiazol-2-ylamino)-phenyl]-isoxazole-5-carbonyl}-amino)-3-hydroxy-propionic acid]
Second: COC[C@H](NC(=O)c1cc(-c2ccc(Nc3nc4ccc(F)cc4s3)cc2)no1)C(=O)O [Example 13, (S)-2-({3-[4-(6-Fluoro-benzothiazol-2-ylamino)-phenyl]-isoxazole-5-carbonyl}-amino)-3-methoxy-propionic acid]
The inhibition at 10 µM of the first is lower: 50 to 75% for the first, 75 to 100% for the second.

First: COC(=O)[C@H]1CSC(c2cc(-c3ccc(Nc4nc5ccc(F)cc5s4)cc3)no2)=N1 [Example 11, (S)-2-{3-[4-(6-Fluoro-benzothiazol-2-ylamino)-phenyl]-isoxazol-5-yl}-4,5-dihydro-thiazole-4-carboxylic acid methyl ester]
Second: COC(=O)[C@@H]1CCCN1C(=O)c1cc(-c2ccc(Nc3nc4ccc(F)cc4s3)cc2)no1 [Example 18, (S)-1-{3-[4-(6-Fluoro-benzothiazol-2-ylamino)-phenyl]-isoxazole-5-carbonyl}-pyrrolidine-2-carboxylic acid methyl ester]
The inhibition at 10 µM of the first is lower: 0 to 50% for the first, 50 to 75% for the second.

Compared with `COC[C@H](NC(=S)c1cc(-c2ccc(Nc3nc4ccc(F)cc4s3)cc2)no1)C(=O)OC` [Example 14, (S)-2-({3-[4-(6-Fluoro-benzothiazol-2-ylamino)-phenyl]-isoxazole-5-carbothioyl}-amino)-3-methoxy-propionic acid methyl ester], `COC[C@H](NC(=S)c1cc(-c2ccc(Nc3nc4ccc(F)cc4s3)cc2)no1)C(=O)O` [Example 15, (S)-2-({3-[4-(6-Fluoro-benzothiazol-2-ylamino)-phenyl]-isoxazole-5-carbothioyl}-amino)-3-methoxy-propionic acid] is higher in inhibition at 10 µM: 0 to 50% for the first, 50 to 75% for the second.

First: COC[C@H](NC(=NO)c1cc(-c2ccc(Nc3nc4ccc(F)cc4s3)cc2)no1)C(=O)OC [Example 16, (S)-2-({3-[4-(6-Fluoro-benzothiazol-2-ylamino)-phenyl]-N-hydroxy-isoxazole-5-carboximidoyl}-amino)-3-methoxy-propionic acid methyl ester]
Second: COC[C@H](NC(=NO)c1cc(-c2ccc(Nc3nc4ccc(F)cc4s3)cc2)no1)C(=O)O [Example 17, (S)-2-({3-[4-(6-Fluoro-benzothiazol-2-ylamino)-phenyl]-N-hydroxy-isoxazole-5-carboximidoyl}-amino)-3-methoxy-propionic acid]
The inhibition at 10 µM of the first is higher: 50 to 75% for the first, 0 to 50% for the second.

Work on `O=C(O)[C@@H]1CCCN1C(=O)c1cc(-c2ccc(Nc3nc4ccc(F)cc4s3)cc2)no1` [Example 19, (S)-1-{3-[4-(6-Fluoro-benzothiazol-2-ylamino)-phenyl]-isoxazole-5-carbonyl}-pyrrolidine-2-carboxylic acid] yielded an inhibition at 10 µM of 50 to 75%.
